Entries after “also recorded” stand apart in the source; their conditions may differ. Where a name gives a salt, the structure may show the parent alone.
Assay: Antagonistic effects on the anesthetic and lethal effects of acetaldehyde in rats
Type: in vivo
Settings: acetaldehyde 1370 mg/kg oral, hydrochloride
Procedure: Rats (body weights 250-280 g) fasted for 18 hours were previously dosed orally with each of test compositions Formula A to Formula G as shown in below. Control group received a corresponding volume of saline by the same route. After a predetermined time (45-60 min ), acetaldehyde (1370 mg/kg) was orally administered to the rats and the effect of Formula A to Formula G on the anesthetic and lethal effects of acetaldehyde was observed.
When 1370 mg/kg of acetaldehyde was administered without prior treatment with the test compositions, the rats (control group) fell into anesthesia within several minutes, and then developed dyspnea and the like and 90% of them died within 1 to 6 hours.
The same experiment as Experimental Example I was carried out with each of test compositions Formula H and I and the results obtained are shown in Table 4.

For `CC(=C(CCO)SSCC1CCCO1)N(C=O)Cc1cnc(C)nc1N` (stereo in doubt) [fursultiamine hydrochloride], the “antagonizing effect against anesthetic and lethal effects of acetaldehyde (in words)” value was “fully effective at the level of addition of 20 mg/kg; also recorded: more effective than thiamine hydrochloride”.
